Test results as given in patent US20260262643A1, “HERBICIDAL BENZOXAZINES” (FMC CORPORATION, priority 2022, published 2026).

Experiments:
[1] = system: soybean; assay: Test C preemergence; format: in vivo, Glycine max; conditions: for Soybean plant response rating: preemergence, 0 to 100 scale (0 no effect, 100 complete control); for Plant response rating, Soybean: Preemergence, 0 to 100 scale, 0 no effect, 100 complete control
From the text: (§1) Seeds of plant species selected from barnyardgrass (Echinochloa crusgalli), blackgrass (Alopecurus myosuroides), corn (Zea mays), foxtail, giant (giant foxtail, Setaria faberi), green foxtail (Setaria viridis), goosegrass (Eleusine indica), kochia (Bassia scoparia), oat, wild (wild oat, Avena fatua), pigweed, palmer (palmer amaranth, palmer pigweed, Amaranthus palmeri), Pigweed, Redroot (redroot pigweed, Amaranthus retroflexus), ragweed (common ragweed, Ambrosia artemisiifolia), ryegrass, Italian ([…] ryegrass, Lolium multiflorum), soybean (Glycine max), and wheat (Triticum aestivum) were planted into a blend of loam soil and sand and treated preemergence with a directed soil spray using test chemicals formulated in a non-phytotoxic solvent mixture which included a surfactant. At the same time, plants selected from these crops and weed species and also galium (catchweed bedstraw, Galium aparine) and horseweed (Erigeron canadensis) were planted in pots containing the same blend of loam soil and sand and treated with postemergence applications of test chemicals formulated in the same manner. Plants ranged in height from 2 to 10 cm and were in the one- to two-leaf stage for the postemergence treatment. Treated plants and untreated controls were maintained in a greenhouse for 10 days, after which time all treated plants were compared to untreated controls and visually evaluated for injury. Plant response ratings, summarized in Table C, are based on a 0 to 100 scale where 0 is no effect and 100 is complete control. A dash (-) response means no test result.

[2] = system: soybean; assay: Test C postemergence; format: in vivo, Glycine max; conditions: 10 days
From the text: as §1

[3] = system: pigweed, palmer; assay: Test C postemergence; format: in vivo, Amaranthus palmeri; conditions: 10 days
Method in brief: (§2)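 Visual injury ratings on a 0–100 scale (100 = complete control) were made against untreated controls 10 days after treatment in the greenhouse. Compounds, formulated with surfactant in non-phytotoxic solvent, were sprayed on soil preemergence or onto one- to two-leaf plants 2–10 cm tall postemergence.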

[4] = system: kochia; assay: Test C preemergence; format: in vivo, Bassia scoparia; conditions: for Kochia plant response rating: preemergence, 0 to 100 scale (0 no effect, 100 complete control); for Plant response rating, Kochia: Preemergence, 0 to 100 scale, 0 no effect, 100 complete control
Method in brief: as §2

[5] = system: galium; assay: Test C postemergence; format: in vivo, Galium aparine; conditions: 10 days
Method in brief: as §2

[6] = system: green foxtail; assay: Test C preemergence; format: in vivo, Setaria viridis; conditions: for Foxtail, Green plant response rating: preemergence, 0 to 100 scale (0 no effect, 100 complete control); for Plant response rating, Foxtail, Green: Preemergence, 0 to 100 scale, 0 no effect, 100 complete control
Method in brief: as §2

[7] = system: ryegrass, Italian; assay: Test C preemergence; format: in vivo, Lolium multiflorum; conditions: for Ryegrass, Italian plant response rating: preemergence, 0 to 100 scale (0 no effect, 100 complete control); for Plant response rating, Ryegrass, Italian: Preemergence, 0 to 100 scale, 0 no effect, 100 complete control
Method in brief: as §2

[8] = system: kochia; assay: Test C postemergence; format: in vivo, Bassia scoparia; conditions: 10 days
Method in brief: as §2

[9] = system: ragweed; assay: Test C postemergence; format: in vivo, Ambrosia artemisiifolia; conditions: 10 days
Method in brief: as §2

[10] = system: wheat; assay: Test C preemergence; format: in vivo, Triticum aestivum; conditions: for Wheat plant response rating: preemergence, 0 to 100 scale (0 no effect, 100 complete control); for Plant response rating, Wheat: Preemergence, 0 to 100 scale, 0 no effect, 100 complete control
From the text: as §1

[11] = system: pigweed, palmer; assay: Test C preemergence; format: in vivo, Amaranthus palmeri; conditions: for Pigweed, Palmer plant response rating: preemergence, 0 to 100 scale (0 no effect, 100 complete control); for Plant response rating, Pigweed, Palmer: Preemergence, 0 to 100 scale, 0 no effect, 100 complete control
Method in brief: as §2

[12] = system: blackgrass; assay: Test C preemergence; format: in vivo, Alopecurus myosuroides; conditions: for Blackgrass plant response rating: preemergence, 0 to 100 scale (0 no effect, 100 complete control); for Plant response rating, Blackgrass: Preemergence, 0 to 100 scale, 0 no effect, 100 complete control
Method in brief: as §2

[13] = system: corn; assay: Test C postemergence; format: in vivo, Zea mays; conditions: 10 days
Method in brief: as §2

[14] = system: oat, wild; assay: Test C postemergence; format: in vivo, Avena fatua; conditions: 10 days
From the text: as §1

[15] = system: oat, wild; assay: Test C preemergence; format: in vivo, Avena fatua; conditions: for Oat, Wild plant response rating: preemergence, 0 to 100 scale (0 no effect, 100 complete control); for Plant response rating, Oat, Wild: Preemergence, 0 to 100 scale, 0 no effect, 100 complete control
From the text: as §1

[16] = system: ryegrass, Italian; assay: Test C postemergence; format: in vivo, Lolium multiflorum; conditions: 10 days
Method in brief: as §2

[17] = system: blackgrass; assay: Test C postemergence; format: in vivo, Alopecurus myosuroides; conditions: 10 days
Method in brief: as §2

[18] = system: green foxtail; assay: Test C postemergence; format: in vivo, Setaria viridis; conditions: 10 days
Method in brief: as §2

[19] = system: barnyardgrass; assay: Test C postemergence; format: in vivo, Echinochloa crusgalli; conditions: 10 days
Method in brief: as §2

[20] = system: corn; assay: Test C preemergence; format: in vivo, Zea mays; conditions: for Corn plant response rating: preemergence, 0 to 100 scale (0 no effect, 100 complete control); for Plant response rating, Corn: Preemergence, 0 to 100 scale, 0 no effect, 100 complete control
Method in brief: as §2

[21] = system: barnyardgrass; assay: Test C preemergence; format: in vivo, Echinochloa crusgalli; conditions: for Barnyardgrass plant response rating: preemergence, 0 to 100 scale (0 no effect, 100 complete control); for Plant response rating, Barnyardgrass: Preemergence, 0 to 100 scale, 0 no effect, 100 complete control
Method in brief: as §2

[22] = system: wheat; assay: Test C postemergence; format: in vivo, Triticum aestivum; conditions: 10 days
From the text: as §1

[23] = system: ragweed; assay: Test C preemergence; format: in vivo, Ambrosia artemisiifolia; conditions: for Ragweed plant response rating: preemergence, 0 to 100 scale (0 no effect, 100 complete control); for Plant response rating, Ragweed: Preemergence, 0 to 100 scale, 0 no effect, 100 complete control
Method in brief: as §2

[24] = system: horseweed; assay: Test C postemergence; format: in vivo, Erigeron canadensis; conditions: 10 days
Method in brief: as §2

[25] = 500 g ai/ha, postemergence, 0 to 100 scale (0 no effect, 100 complete control)
[26] = Postemergence, 125 g ai/ha, 0 to 100 scale (0 no effect, 100 complete control)
[27] = 125 g ai/ha, postemergence, 0 to 100 scale, 0 no effect, 100 complete control
[28] = Postemergence, 31 g ai/ha, 0 to 100 scale, 0 no effect, 100 complete control

CC(C)c1ncn(-c2ccc(S(C)(=O)=O)c(C(=O)N3C[C@H](C)Oc4c(Cl)cccc43)c2)n1 [Compound 393]
Soybean plant response rating ([1]; 500 g ai/ha): 40
Plant response rating, Soybean ([1]; 125 g ai/ha): 20
Plant response rating, Soybean [2, 25]: 100
Plant response rating, Soybean [2, 26]: 70
Plant response rating, Pigweed, Palmer [3, 25]: 90
Plant response rating, Pigweed, Palmer [3, 26]: 60
Kochia plant response rating ([4]; 500 g ai/ha): 90
Plant response rating, Kochia ([4]; 125 g ai/ha): 80
Plant response rating, Galium [5, 25]: 100
Plant response rating, Galium [5, 26]: 70
Foxtail, Green plant response rating ([6]; 500 g ai/ha): 100
Plant response rating, Foxtail, Green ([6]; 125 g ai/ha): 80
Ryegrass, Italian plant response rating ([7]; 500 g ai/ha): 90
Plant response rating, Ryegrass, Italian ([7]; 125 g ai/ha): 0
Plant response rating, Kochia [8, 25]: 90
Plant response rating, Kochia [8, 26]: 70
Plant response rating, Ragweed [9, 25]: 70
Plant response rating, Ragweed [9, 26]: 60
Wheat plant response rating ([10]; 500 g ai/ha): 30
Plant response rating, Wheat ([10]; 125 g ai/ha): 0
Pigweed, Palmer plant response rating ([11]; 500 g ai/ha): 100
Plant response rating, Pigweed, Palmer ([11]; 125 g ai/ha): 80
Blackgrass plant response rating ([12]; 500 g ai/ha): 20
Plant response rating, Blackgrass ([12]; 125 g ai/ha): 20
Plant response rating, Corn [13, 25]: 50
Plant response rating, Corn [13, 26]: 20
Plant response rating, Oat, Wild [14, 25]: 40
Plant response rating, Oat, Wild [14, 26]: 0
Oat, Wild plant response rating ([15]; 500 g ai/ha): 40
Plant response rating, Oat, Wild ([15]; 125 g ai/ha): 0
Plant response rating, Ryegrass, Italian [16, 25]: 80
Plant response rating, Ryegrass, Italian [16, 26]: 10
Plant response rating, Blackgrass [17, 25]: 0
Plant response rating, Blackgrass [17, 26]: 0
Plant response rating, Foxtail, Green [18, 25]: 70
Plant response rating, Foxtail, Green [18, 26]: 10
Plant response rating, Barnyardgrass [19, 25]: 50
Plant response rating, Barnyardgrass [19, 26]: 30
Corn plant response rating ([20]; 500 g ai/ha): 20
Plant response rating, Corn ([20]; 125 g ai/ha): 0
Barnyardgrass plant response rating ([21]; 500 g ai/ha): 70
Plant response rating, Barnyardgrass ([21]; 125 g ai/ha): 40
Plant response rating, Wheat [22, 25]: 20
Plant response rating, Wheat [22, 26]: 10
Ragweed plant response rating ([23]; 500 g ai/ha): 0
Plant response rating, Ragweed ([23]; 125 g ai/ha): 0
Plant response rating, Horseweed [24, 25]: 20
Plant response rating, Horseweed [24, 26]: 0

Cc1ccc(-n2cnc(C3(O)CCCC3)n2)cc1C(=O)N1C[C@H](C)Oc2c(Cl)cccc21 [Compound 193]
Plant response rating, Soybean ([1]; 31 g ai/ha): 0
Soybean plant response rating ([1]; Test C, 125 g ai/ha): 90
Plant response rating, Soybean [2, 27]: 100
Plant response rating, Soybean [2, 28]: 100
Plant response rating, Pigweed, Palmer [3, 27]: 70
Plant response rating, Pigweed, Palmer [3, 28]: 20
Plant response rating, Kochia ([4]; 31 g ai/ha): 60
Kochia plant response rating ([4]; Test C, 125 g ai/ha): 100
Plant response rating, Galium [5, 27]: 100
Plant response rating, Galium [5, 28]: 60
Plant response rating, Foxtail, Green ([6]; 31 g ai/ha): 0
Foxtail, Green plant response rating ([6]; Test C, 125 g ai/ha): 0
Plant response rating, Ryegrass, Italian ([7]; 31 g ai/ha): 60
Ryegrass, Italian plant response rating ([7]; Test C, 125 g ai/ha): 80
Plant response rating, Kochia [8, 27]: 80
Plant response rating, Kochia [8, 28]: 20
Plant response rating, Ragweed [9, 27]: 60
Plant response rating, Ragweed [9, 28]: 50
Plant response rating, Wheat ([10]; 31 g ai/ha): 0
Wheat plant response rating ([10]; Test C, 125 g ai/ha): 0
Plant response rating, Pigweed, Palmer ([11]; 31 g ai/ha): 60
Pigweed, Palmer plant response rating ([11]; Test C, 125 g ai/ha): 90
Plant response rating, Blackgrass ([12]; 31 g ai/ha): 0
Blackgrass plant response rating ([12]; Test C, 125 g ai/ha): 0
Plant response rating, Corn [13, 27]: 0
Plant response rating, Corn [13, 28]: 0
Plant response rating, Oat, Wild [14, 27]: 0
Plant response rating, Oat, Wild [14, 28]: 0
Plant response rating, Oat, Wild ([15]; 31 g ai/ha): 0
Oat, Wild plant response rating ([15]; Test C, 125 g ai/ha): 20
Plant response rating, Ryegrass, Italian [16, 27]: 50
Plant response rating, Ryegrass, Italian [16, 28]: 20
Plant response rating, Blackgrass [17, 27]: 60
Plant response rating, Blackgrass [17, 28]: 0
Plant response rating, Foxtail, Green [18, 27]: 80
Plant response rating, Foxtail, Green [18, 28]: 30
Plant response rating, Barnyardgrass [19, 27]: 40
Plant response rating, Barnyardgrass [19, 28]: 10
Plant response rating, Corn ([20]; 31 g ai/ha): 0
Corn plant response rating ([20]; Test C, 125 g ai/ha): 0
Plant response rating, Barnyardgrass ([21]; 31 g ai/ha): 10
Barnyardgrass plant response rating ([21]; Test C, 125 g ai/ha): 80
Plant response rating, Wheat [22, 27]: 10
Plant response rating, Wheat [22, 28]: 10
Plant response rating, Ragweed ([23]; 31 g ai/ha): 0
Ragweed plant response rating ([23]; Test C, 125 g ai/ha): 60
Plant response rating, Horseweed [24, 27]: 0
Plant response rating, Horseweed [24, 28]: 0
